Earlier results in patent US20040092519A1, “New treatment for hot flashes” (priority 2002, published 2004).

What was measured:
[1] = transdermal; some patients
[2] = low doses; men and women

Row | Compound | side effects [1] | frequency of hot flashes [2]
1 | Clc1cccc(Cl)c1N=C1NCCN1 [clonidine] | drowsiness, fatigue, and symptoms of low blood pressure | 
2 | CC(=O)O[C@]1(C(C)=O)CC[C@H]2[C@@H]3C=C(C)C4=CC(=O)CC[C@]4(C)[C@H]3CC[C@@]21C [megestrol acetate] |  | reduce the frequency of hot flashes
